{
  "source": "patent US12558321B2",
  "about": "“Pharmaceutical formulation” (CIPLA LIMITED, priority 2018, dated 2026)",
  "origin": "cited, not measured here",
  "data": [
    {"compound": "COC(=O)c1ccc2c(c1)NC(=O)/C2=C(\\Nc1ccc(N(C)C(=O)CN2CCN(C)CC2)cc1)c1ccccc1", "note": "[Nintedanib]", "values": [
      {"measurement": "solubility at neutral conditions", "setting": "neutral conditions", "result": "poor solubility"},
      {"measurement": "solubility in water", "setting": "water", "result": "slightly soluble in water"}
    ]}
  ]
}
